Measured values reported in patent US20250205204A1, “Transcription Factor Brn2 Inhibitory Compounds for Use as Therapeutics” (The University of British Columbia, priority 2021, published 2025).

Legend:
[1] = Metabolic stability in liver microsomes (MLM); assay type: in vitro ADME, mice; details: 0.25 mg/mL protein
In short: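 Mouse liver microsomes (0.25 mg/mL protein) in 50 mM potassium phosphate pH 7.4 at 37 °C with 1 µM compound, 1 mM NADPH, 0.1% DMSO; sampled 0–60 min in duplicate. LC-MS/MS parent depletion gives half-life; CL'int in mL/min/kg scaled with 45 mg protein/g liver, 90 g liver.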

BRN2 = molecular target: T1, BRN2 (Homo sapiens, UniProt P20265); assay: Drug Affinity Responsive Target Stability (DARTS) assay; details: printed in BLI binding column; 42D^ENZR lysate
T1 sequence (P20265 1-443): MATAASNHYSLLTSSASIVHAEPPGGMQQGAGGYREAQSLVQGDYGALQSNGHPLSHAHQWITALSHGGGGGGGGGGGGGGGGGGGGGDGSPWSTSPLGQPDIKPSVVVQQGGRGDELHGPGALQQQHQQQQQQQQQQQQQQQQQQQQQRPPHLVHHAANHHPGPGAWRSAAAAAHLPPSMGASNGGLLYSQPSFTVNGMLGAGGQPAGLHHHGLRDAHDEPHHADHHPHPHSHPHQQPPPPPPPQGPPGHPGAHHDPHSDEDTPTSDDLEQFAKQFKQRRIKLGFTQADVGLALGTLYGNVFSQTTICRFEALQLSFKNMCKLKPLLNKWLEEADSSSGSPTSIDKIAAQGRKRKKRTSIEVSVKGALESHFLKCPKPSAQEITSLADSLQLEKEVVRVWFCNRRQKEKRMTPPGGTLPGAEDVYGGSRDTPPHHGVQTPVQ
Method: Step 2: Drug Affinity Responsive Target Stability (DARTS) Assay
This in cell assay provides a yes/no answer to direct interaction between BRN2 inhibitor and protein.
1) Prepare and place the following on ice: • Pronase • TNC 10× • 500 mM Tris-HCl (pH 8.0) • 500 mM NaCl, 100 mM CaCl2 • DMSO • Drug • 10 mL NP40+Protease inhibitor+Phosphatase inhibitor solution (can store in 4° C. and use for up to 4 weeks): • 2 mL NP40 5× • 8 mL ddH2O • 1 PhosphoSTOP™ pill • 200 uL protease inhibitor 50×
2) Remove the growth medium from the cell plate (42D^ENZR) and add 10 mL of cold PBS/vanadate.
3) Scrape the cells. Remove the PBS-cell solution and add in a falcon tube.
4) Name a new 1.5 ml Eppendorf tube and put on ice to pre-chill.
5) Centrifuge the cells at 1500 for 5 minutes at 4° C. Remove supernatant and re-suspend the cells in 600 uL NP40 lysis buffer by pipetting up and down. If the cell pellet is small use less volume, for example 300 μl)
6) Transfer the lysing cells into the pre-chilled Eppendorf tube. Incubate on ice for 20 minutes. If not continuing the DARTS on the same day, you can put the lysate in −30 and work on it later.
Preparing Cell Lysates for DARTS:
7) Centrifuge the tube at maximum speed for 25-30 minutes at 4° C.
8) Discard the pellet (either transfer the supernatant in a new tube or just take out the pellet). […]
20) The samples are ready for Western blot gel running. […]

- half-life at 1 μM ([1]; mouse, liver microsomes, pH 7.4, 1 μM compound, read-out: T1/2 in mins (MLM)): 40 min
- Met Stab % (60 mins) MLM ([1]; percent remaining at 60 min, 1 μM compound, 1 mM NADPH): 31%
SMILES: O=C1/C(=N\Nc2nc3ccccc3s2)Cc2ccccc21 [7-62, (Z)-2-(2-(benzo[d]thiazol-2-yl)hydrazineylidene)-2,3-dihydro-1H-inden-1-one]
- binding observed using DARTS assay (BRN2): Strong binding observed using DARTS assay
